Assay results: patent publication US5484803A, “Transcutaneous in vivo activation of photosensitive agents in blood” (priority 1995, dated 1996)

Experiments:
mouse blood = assay: Blood parameters two weeks after treatment (Coulter Counter); type: in vivo, Balb/c mice; conditions: for HB (hemoglobin) / Hct (hematocrit) / MCV / PLT (platelet count) / RBC / WBC: 2 weeks
Experimental: Blood Tests: Blood was drawn into syringes containing 50 μl of heparin (1000 units/ml saline). Blood samples (0.45 ml) from at least 1 mouse per time point were sent to the Diagnostic Laboratory at the University Hospital, University of British Columbia site, for analysis by a Coulter Counter. Blood morphology was determined on blood films prepared from selected samples by a laboratory technologist.
Six Balb/c mice (22±1 g weight) were prepared as described above. Five mice were injected twice (24 hour interval) with BPD from DMSO stock (not liposomal BPD) and exposed to light 1 hour after the injection. One mouse was not injected but was exposed to light (light-only control). During the first treatment the mice were injected with 15 μg BPD/mouse in 200 μl of PBS. During the second treatment the mice were injected with 20 μg BPD/mouse (0.9 mg/kg). A single mouse was used as a control for both treatments.
Immediately post-injection (on both occasions) the animals were kept for 1 hour in the dark and then were placed in individual plastic containers (9×4×5 cm), which were placed in the light box and exposed to light. The individual mice were removed from the light box at different intervals: 15, 30, 45, 60 and 75 min, respectively. The light doses delivered at the surface of the skin were 27, 54, 81, 108 and 135 J/cm^2, respectively. On the second occasion the same light doses were used; however, mice receiving higher light doses on day 1 received lower doses on day 2. The control mouse was exposed to light for 60 min on both occasions. During light exposure, the mice were constantly observed for signs of discomfort or itching. After the second light exposure, the mice were observed daily for a period of 2 weeks for appearance of the skin and general pattern of behavior.
Two weeks post-treatment blood samples were obtained from each mouse by a heart puncture, under halothane anesthesia. Then the mice were sacrificed and autopsied. Their spleen, liver and kidneys were weighed.

mice = assay: Tolerability of light exposure starting 15 min post-injection (lethality); type: in vivo, Balb/c mice
Experimental: In order to determine the level of BPD in plasma during the light treatment, the following experiment was carried out. Fourteen Balb/c mice (22±1 g of weight) were injected with liposomal BPD at 20 μg/mouse (0.9 mg/kg) in 200 μl PBS per mouse. Blood samples were obtained by heart puncture at various time intervals between 15 min and 2 hours post-injection. Exposure to light started at 15 min post-injection for some mice. The BPD concentration in plasma was determined as described above.
At 2 hours post-injection, i.e., at the time point corresponding to the end of 1 hour exposure to light (108 J/cm^2) in the first example, the plasma level of BPD was 2.44 μg/ml. At the beginning of exposure to light, in the same example, the plasma level of BPD was about 4 μg/ml. To further evaluate skin photosensitivity at these low levels, mice were exposed to light at an earlier time post-injection, i.e., at 15 min, when the level of BPD in plasma was 6.32 μg/ml.

[1] = tested on: tumor tissue, including leukemic cells; conditions: cited from earlier work
mice skin = assay: Skin photosensitivity and skin changes, transcutaneous activation study; type: in vivo
[2] = in vivo; cited from earlier work
skin = conditions: DBA/2, 4 mg/kg, cited from earlier work
[3] = tested on: free viruses and virally infected cells; conditions: with red light (400-900 nm); spiked blood products and whole blood from viremic cats; cited from earlier work
[4] = mouse 1, light 27 then 135 J/cm^2
[5] = mouse 2, light 54 then 108 J/cm^2
[6] = mouse 3, light 81 then 81 J/cm^2
[7] = mouse 4, light 108 then 54 J/cm^2
[8] = mouse 5, light 135 then 27 J/cm^2

## benzoprophyrin derivative monoacid ring A [BPD]
Mouse blood; [4]
  HB (hemoglobin): 122 g/L
  Hct (hematocrit): 0.352
  MCV: 49.5 fL
  PLT (platelet count): 328 10^6 /ml
  RBC: 7.11 10^9 /ml
  WBC: 4.0 10^6 /ml
Mouse blood; [5]
  HB (hemoglobin): 126 g/L
  Hct (hematocrit): 0.382
  MCV: 49.2 fL
  PLT (platelet count): 274 10^6 /ml
  RBC: 7.76 10^9 /ml
Mouse blood; mouse 2, light 54 then 108 J/cm^2, platelet aggregate may contribute
  WBC: 14.7 10^6 /ml
Mouse blood; [6]
  HB (hemoglobin): 124 g/L
  Hct (hematocrit): 0.365
  MCV: 48.9 fL
  PLT (platelet count): 119 10^6 /ml
  RBC: 7.46 10^9 /ml
  WBC: 8.2 10^6 /ml
Mouse blood; [7]
  HB (hemoglobin): 123 g/L
  Hct (hematocrit): 0.364
  MCV: 47.6 fL
  PLT (platelet count): 438 10^6 /ml
  RBC: 7.65 10^9 /ml
  WBC: 7.6 10^6 /ml
Mouse blood; [8]
  HB (hemoglobin): 108 g/L
  Hct (hematocrit): 0.316
  MCV: 48.8 fL
  PLT (platelet count): 134 10^6 /ml
  RBC: 6.47 10^9 /ml
  WBC: 2.9 10^6 /ml
Mouse blood; two weeks post-treatment
  all blood values (Tables 3 and 4): within normal ranges
mice; light exposure of about 50 J/cm^2 whole body irradiation, 0.9 mg/kg, 15 min
  starting plasma level of BPD lethal to mice: about 6.5 μg/ml
mice; light from 15 min post-injection
  discomfort on light exposure: almost immediately uncomfortable
mice; liposomal BPD 0.9 mg/kg, light from 15 min post-injection, 54 J/cm^2
  death of mice on light exposure: died after 30 min of exposure
[1]
  affinity for tumor tissue versus normal cells: higher affinity for tumor tissue, including leukemic cells, than for normal non-malignant cells
Mice skin; 0.9 mg/kg liposomal BPD, 54-162 J/cm^2
  skin photosensitivity: did not cause skin photosensitivity
Mice skin; immediately or during the 2 week post-exposure period, 0.9 mg/kg, 30 mW/cm^2
  changes of the skin: no changes of the skin were observed
[2]
  time of accumulation of BPD in the skin: up to 5 hours
skin; 153 J/cm^2 (170 mW/cm^2) at 3 h
  immediate post-exposure changes in the skin: no immediate post-exposure changes in the skin were observed
skin; 153 J/cm^2 (170 mW/cm^2) at 3 h, within first 24 hour post-exposure, progressed up to 96 hours
  skin necrosis: severe skin necrosis
skin; 153 J/cm^2, eventually
  healing of wounds: the wounds healed and the hair regrew
[3]
  elimination of free viruses and virally infected cells: effective in eliminating both free viruses and virally infected cells
